Values joined by “and” are separate entries in the source; they are usually repeats but may differ in a detail not shown here. Equal values may be shown once. “Also recorded” adds a separate entry of the source. Read-outs that look alike come from different tables or passages of the source.
What was measured:
[1] = system: extracellular S.Tm grown in MHB broth; assay: Broth activity assay (growth / MIC in Mueller Hinton Broth); format: cell-based, Salmonella enterica serovar Typhimurium; details: Salmonella enterica, three Salmonella strains SL1344, MAR1, S10801
Experimental: (§1) Overnight Salmonella cultures were washed 3 times in PBS and diluted to an OD of 0.01 in Mueller Hinton Broth in 96-well flat bottom plates. Compound was added using a pin tool (CyBio) or manually, yielding a final concentration of no more than 1% DMSO. Plates were grown at 37° C. shaking and OD600 was monitored using a BioTek Eon incubator shaker microplate absorbance reader. For experiments in defined media, bacteria were grown in M9 minimal media supplemented with 100 mM Tris pH 7.4, 0.35% glycerol, 0.002% histidine, 10 mM MgCl2, and 0.1% casamino acids. Where indicated, media was supplemented with 5 μg/ml polymyxin B or 0.2 mM H2O2. For experiments with LL-37, bacteria were grown in M9 minimal media supplemented with 0.4% dextrose, 0.004% histidine, 1 mM MgSO4, and 5 μg/ml LL-37. For checkerboard assays, MIC was defined as the concentration at which no growth was visually observed.

[2] = system: S.Tm efflux pumps; assay: Hoechst 33342 accumulation assay; format: cell-based, Salmonella enterica serovar Typhimurium
Experimental: Efflux pumps (EPs) represent a key pathogen virulence strategy to protect against host antimicrobials as well as therapeutic antibiotics. […] To uncover putative EPMs within our collection of hits, 58 repurchased compounds were screened in a Hoechst accumulation assay. Bacteria were incubated with Hoechst 33342, a dye which fluoresces when bound to DNA.
Hoechst accumulation assays were performed essentially as described in the literature. Briefly, overnight Salmonella cultures were washed 3 times in PBS and diluted to an OD of 0.1 in PBS with 2.5 μM Hoechst 33342 in the presence of the indicated concentrations of compounds. Fluorescence was monitored on a Biotek Synergy 2 with a 360/40 nm excitation filter and 460/40 nm emission filter. The maximum Hoechst fluorescence over 60 minutes of incubation was normalized to the signal from the equivalent number of heat-killed bacteria, after subtraction of autofluroescent signal determined from compound incubated in the absence of bacteria. Curve fitting to determine EC50s was performed using GraphPad Prism.

[3] = system: S.Tm; assay: Swimming assay in soft agar (proton motive force); format: cell-based, Salmonella enterica serovar Typhimurium; details: 50 mM, 10 μl on disk (500×, 125×, ~62.5× the MIC for EPM30, EPM35, EPM43)
[4] = system: wild-type S.Tm; assay: Growth in broth with antimicrobial peptides (polymyxin B, LL-37) and EPMs; format: cell-based, Salmonella enterica serovar Typhimurium; details: polymyxin B 5 μg/ml (⅛ MIC) + 25 μM EPM
From the text: Next, it was investigated how EPMs might lead to bacterial clearance within host cells. […] Instead, EPMs may synergize with a host antimicrobial(s) that is effluxed by EPs. Two S.Tm EPs are necessary for infection of macrophages and mice (FIG. 10). The first EP, MacAB, is important for defense against ROS. The second S.Tm EP, AcrAB, is a homolog of MtrCDE, an EP in Neisseria gonorrhoeae which exports host antimicrobial peptides (AMPs). AcrAB thus likely exports AMPs as well as a variety of other substrates including antibiotics, dyes, and detergents. To test whether the EPMs synergize with macrophage defenses, wild-type bacteria was exposed in broth to ROS or AMPs in the presence of EPMs. […] Next, the two AMPs were tested: polymyxin B is a model peptide produced by bacteria; LL-37 is a human cathelicidin produced by macrophages.
Overnight Salmonella cultures were washed 3 times in PBS and diluted to an OD of 0.01 in Mueller Hinton Broth in 96-well flat bottom plates. Compound was added using a pin tool (CyBio) or manually, yielding a final concentration of no more than 1% DMSO. Plates were grown at 37° C. shaking and OD600 was monitored using a BioTek Eon incubator shaker microplate absorbance reader. For experiments in defined media, bacteria were grown in M9 minimal media supplemented with 100 mM Tris pH 7.4, 0.35% glycerol, 0.002% histidine, 10 mM MgCl2, and 0.1% casamino acids. […]

[5] = system: S.Tm wild-type SL1344, MAR1 and S10801; assay: microbe, parasite or virus in culture; format: cell-based, Salmonella enterica serovar Typhimurium; details: for sensitivity of MDR S.Tm to tetracycline: MAR1 and S10801
Experimental: Increased expression or function of efflux pumps often contributes to clinical multidrug resistance. Therefore, whether the EPMs re-sensitize two multidrug resistant strains of S.Tm to tetracycline was tested. Tetracycline is an antibiotic exported by AcrAB. The MAR1 strain is derived from wild-type SL1344 was selected by exposure to tetracycline, and has increased expression of the AcrAB efflux pump. S10801 is an MDR strain isolated from the mesenteric lymph node of a septic calf and is resistant to tetracycline, ampicillin, chloramphenicol, nalidixic acid, and triple sulfa. The basis of multi-drug resistance in this strain is unknown.
as §1

[6] = system: K. pneumoniae; assay: Nile Red export in MDR clinical isolate; format: cell-based, Klebsiella pneumoniae; details: after glucose addition
From the text: (§2) Six pathogens that cause the bulk of MDR nosocomial infections have been dubbed the ESKAPE pathogens: Enterococcus faecium, Staphylococcus aureus, Klebsiella pneumoniae, Acinetobacter baumannii, Pseudomonas aeruginosa, and Enterobacter species (56).
(§3) Referring to FIGS. 22A-22D: Defined strains obtained from BEI resources were examined for Nile Red retention after glucose addition in the presence of the indicated compound. *p<0.05; **p<0.01; ***p<0.001; ****p<0.0001 as determined by comparison to DMSO+glucose with a one-way ANOVA and Dunnett's multiple comparison post-test.
(§4) Nile Red assays were adapted from an established protocol. Briefly, overnight Salmonella cultures were grown in Mueller-Hinton cation-adjusted broth (Sigma), washed, and resuspended at an OD600 of 2.0. Cells were incubated in 10 μM Nile Red for 3 hours at 37° C. with aeration, then moved to room temperature for 1 hour. After pelleting at 2000× g, dye-loaded cells were aliquoted and combined with compound at the indicated concentrations. Two hundred microliters was loaded into 96-well black walled plates (Greiner) and read using a Varioskan Flash Multimode Reader with 540 nm excitation and 625 nm emission filters. We observed that during loading into plates (˜20 minutes), bacteria were able to efflux Nile Red even in the absence of glucose (FIG. 8A). […]

[7] = system: Enterobacter cloacae; assay: Nile Red export in MDR clinical isolate; format: cell-based; details: after glucose addition
From the text: as §2, §3, §4

[8] = system: E. coli; assay: Nile Red export in E. coli; format: cell-based; details: after glucose addition
From the text: as §2, §3, §4

SMILES | MIC [1] | Hoechst assay EC50 relative to PAβN [2] | Hoechst accumulation / fluorescence ([2]; wild-type S.Tm, 60 minutes) | halo in swimming assay [3] | growth on co-treatment with polymyxin B [4] | decrease of the tetracycline MIC ([5]; 50 μM (⅛ MIC), both strains MAR1 and S10801) | sensitivity of MDR S.Tm to tetracycline [5] | Nile Red export [6] | Nile Red export [7] | Nile Red export [8] | Hoechst accumulation / fluorescence [2]
OC(COc1ccc(Cl)c(Cl)c1)CN1CCC(Nc2nccc(C(F)(F)F)n2)CC1 (stereo not drawn) [EPM35] | 400 µM and 186 µg/mL | lower than that of PAβN | increased S.Tm accumulation of Hoechst in a dose-dependent manner; also recorded: fluorescence comparable to that of PAβN | formed a small halo | completely inhibited growth | 4 fold | increased sensitivity to tetracycline | significantly reduced Nile Red export | significantly reduced Nile Red export | significantly reduced Nile Red export | 
Cc1ccc(Sc2cccc3nc(N)nc(N)c23)cc1 [EPM43] | > 400 µM and 113 µg/mL |  |  | formed no halo | completely inhibited growth |  | not | significantly reduced Nile Red export | significantly reduced Nile Red export | significantly reduced Nile Red export | increased S.Tm accumulation of Hoechst in a dose-dependent manner; also recorded: fluorescence comparable to that of PAβN

From patent US11110080B2, “Small molecule inhibitors of bacterial efflux pumps and methods of using same” (The Regents of the University of Colorado, a body Corporate, priority 2017, dated 2021)
